Test results as given in the supplement of paper PMC11451515.

What was measured:
Settings in all cases: 48 h
NOMO1 [1] = assay: cell viability relative to DMSO control; higher = less cytotoxic
Procedure, shortened: (§1)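 Library compounds in DMSO were pin-dosed into 1536-well plates (5 μl) holding NOMO1 or SEM (500 cells/well) or P12-Ichikawa (1000 cells/well) leukemia cells, across an 11-point threefold series of 47 μM to 0.79 nM. Each cell line had been adapted for at least four passages in each medium. CellTiter-Glo One luminescence was read after 48 h at 37°C. Viability is the per-plate percentage relative to DMSO wells, with cell-free wells as background.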

P12-Ichikawa [2] = assay: as above
Procedure, shortened: as §1

SEM cells [3] = assay: as above
Procedure, shortened: as §1

NOMO1 [4] = assay: AUC of viability dose-response curve (% viability x log10 dose units); higher = less sensitive
Procedure, shortened: (§2)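 Leukemia cells adapted to each medium (500 or 1000 cells/well, 1536-well plates) were exposed to library compounds in DMSO for 48 h at 37°C at 11 threefold doses, 47 μM to 0.79 nM. Luminescence by CellTiter-Glo One was normalised per plate to DMSO and cell-free wells, then fitted with a four-parameter log-logistic curve on log10 dose. Curves above full viability were scaled and quality-control failures removed before area under the curve was integrated by trapezoidal rule.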

P12-Ichikawa [5] = assay: as above
Procedure, shortened: as §2

SEM cells [6] = assay: as above
Procedure, shortened: as §2

O=C(NCC1CCOCC1)c1cnc(Nc2ccc(Cl)cc2Cl)nc1C(F)(F)F
cell viability [%]
Settings	NOMO1 [1]	P12-Ichikawa [2]	SEM cells [3]
HPLM + 10% dialyzed FBS, 0.000781 µM	101	102	89.6
HPLM + 10% dialyzed FBS, 0.00234 µM	121	111	98.1
HPLM + 10% dialyzed FBS, 0.00702 µM	121	115	99
HPLM + 10% dialyzed FBS, 0.0211 µM	114	118	67.7
HPLM + 10% dialyzed FBS, 0.0632 µM	126	109	108
HPLM + 10% dialyzed FBS, 0.19 µM	117	117	103
HPLM + 10% dialyzed FBS, 0.569 µM	122	118	106
HPLM + 10% dialyzed FBS, 1.71 µM	114	115	102
HPLM + 10% dialyzed FBS, 5.12 µM	131	115	99.5
HPLM + 10% dialyzed FBS, 15.4 µM	141	121	114
HPLM + 10% dialyzed FBS, 46.1 µM	127	124	117
RPMI 5 mM glucose + 10% FBS, 0.000781 µM	96.5	100	95.9
RPMI 5 mM glucose + 10% FBS, 0.00234 µM	112	127	103
RPMI 5 mM glucose + 10% FBS, 0.00702 µM	116	123	108
RPMI 5 mM glucose + 10% FBS, 0.0211 µM	121	121	61.9
RPMI 5 mM glucose + 10% FBS, 0.0632 µM	116	130	99.1
RPMI 5 mM glucose + 10% FBS, 0.19 µM	117	131	100
RPMI 5 mM glucose + 10% FBS, 0.569 µM	117	112	99.7
RPMI 5 mM glucose + 10% FBS, 1.71 µM	126	131	103
RPMI 5 mM glucose + 10% FBS, 5.12 µM	127	123	99.1
RPMI 5 mM glucose + 10% FBS, 15.4 µM	131	132	105
RPMI 5 mM glucose + 10% FBS, 46.1 µM	124	118	98.5
RPMI 5 mM glucose + 10% dialyzed FBS, 0.000781 µM	109	98	94.2
RPMI 5 mM glucose + 10% dialyzed FBS, 0.00234 µM	129	115	97.8
RPMI 5 mM glucose + 10% dialyzed FBS, 0.00702 µM	116	114	108
RPMI 5 mM glucose + 10% dialyzed FBS, 0.0211 µM	122	127	67.9
RPMI 5 mM glucose + 10% dialyzed FBS, 0.0632 µM	131	123	121
RPMI 5 mM glucose + 10% dialyzed FBS, 0.19 µM	121	132	119
RPMI 5 mM glucose + 10% dialyzed FBS, 0.569 µM	122	120	113
RPMI 5 mM glucose + 10% dialyzed FBS, 1.71 µM	116	122	112
RPMI 5 mM glucose + 10% dialyzed FBS, 5.12 µM	120	122	91.7
RPMI 5 mM glucose + 10% dialyzed FBS, 15.4 µM	134	127	123
RPMI 5 mM glucose + 10% dialyzed FBS, 46.1 µM	131	123	101

AUC of viability dose-response curve
Settings	NOMO1 [4]	P12-Ichikawa [5]	SEM cells [6]
HPLM + 10% dialyzed FBS	439	450	425
RPMI 5 mM glucose + 10% FBS	456	472	461
RPMI 5 mM glucose + 10% dialyzed FBS	456	465	448

CC(C)(Sc1ccc(CCN(CCCCC2CCCCC2)C(=O)NC2CCCCC2)cc1)C(=O)O
cell viability [%]
Settings	NOMO1 [1]	P12-Ichikawa [2]	SEM cells [3]
HPLM + 10% dialyzed FBS, 0.000781 µM	107	114	98.9
HPLM + 10% dialyzed FBS, 0.00234 µM	120	115	105
HPLM + 10% dialyzed FBS, 0.00702 µM	101	116	110
HPLM + 10% dialyzed FBS, 0.0211 µM	111	115	102
HPLM + 10% dialyzed FBS, 0.0632 µM	109	110	106
HPLM + 10% dialyzed FBS, 0.19 µM	109	109	113
HPLM + 10% dialyzed FBS, 0.569 µM	118	111	111
HPLM + 10% dialyzed FBS, 1.71 µM	108	105	96.3
HPLM + 10% dialyzed FBS, 5.12 µM	101	107	94.4
HPLM + 10% dialyzed FBS, 15.4 µM	114	101	93.9
HPLM + 10% dialyzed FBS, 46.1 µM	101	83.4	98.9
RPMI 5 mM glucose + 10% FBS, 0.000781 µM	102	111	96.3
RPMI 5 mM glucose + 10% FBS, 0.00234 µM	120	112	108
RPMI 5 mM glucose + 10% FBS, 0.00702 µM	113	106	117
RPMI 5 mM glucose + 10% FBS, 0.0211 µM	110	110	114
RPMI 5 mM glucose + 10% FBS, 0.0632 µM	120	109	102
RPMI 5 mM glucose + 10% FBS, 0.19 µM	120	111	105
RPMI 5 mM glucose + 10% FBS, 0.569 µM	107	115	105
RPMI 5 mM glucose + 10% FBS, 1.71 µM	118	102	98.8
RPMI 5 mM glucose + 10% FBS, 5.12 µM	98	107	107
RPMI 5 mM glucose + 10% FBS, 15.4 µM	95.6	89	89.6
RPMI 5 mM glucose + 10% FBS, 46.1 µM	118	86.2	75.9
RPMI 5 mM glucose + 10% dialyzed FBS, 0.000781 µM	106	113	103
RPMI 5 mM glucose + 10% dialyzed FBS, 0.00234 µM	102	110	107
RPMI 5 mM glucose + 10% dialyzed FBS, 0.00702 µM	102	114	102
RPMI 5 mM glucose + 10% dialyzed FBS, 0.0211 µM	114	122	111
RPMI 5 mM glucose + 10% dialyzed FBS, 0.0632 µM	113	116	117
RPMI 5 mM glucose + 10% dialyzed FBS, 0.19 µM	104	113	101
RPMI 5 mM glucose + 10% dialyzed FBS, 0.569 µM	112	104	114
RPMI 5 mM glucose + 10% dialyzed FBS, 1.71 µM	108	111	96.9
RPMI 5 mM glucose + 10% dialyzed FBS, 5.12 µM	93.7	104	101
RPMI 5 mM glucose + 10% dialyzed FBS, 15.4 µM	114	102	113
RPMI 5 mM glucose + 10% dialyzed FBS, 46.1 µM	98.8	73.5	82.1

AUC of viability dose-response curve
Settings	NOMO1 [4]	P12-Ichikawa [5]	SEM cells [6]
HPLM + 10% dialyzed FBS	467	460	460
RPMI 5 mM glucose + 10% FBS	467	462	463
RPMI 5 mM glucose + 10% dialyzed FBS	472	460	472

C[C@H](NCc1ccc(OCc2cccc(F)c2)cc1)C(N)=O
cell viability [%]
Settings	NOMO1 [1]	P12-Ichikawa [2]	SEM cells [3]
HPLM + 10% dialyzed FBS, 0.000781 µM	87.6	95.1	81
HPLM + 10% dialyzed FBS, 0.00234 µM	125	110	102
HPLM + 10% dialyzed FBS, 0.00702 µM	121	107	102
HPLM + 10% dialyzed FBS, 0.0211 µM	113	123	107
HPLM + 10% dialyzed FBS, 0.0632 µM	116	116	97.6
HPLM + 10% dialyzed FBS, 0.19 µM	116	122	76.7
HPLM + 10% dialyzed FBS, 0.569 µM	124	114	58
HPLM + 10% dialyzed FBS, 1.71 µM	133	115	42.3
HPLM + 10% dialyzed FBS, 5.12 µM	97.7	104	29.6
HPLM + 10% dialyzed FBS, 15.4 µM	95.1	98	30.7
HPLM + 10% dialyzed FBS, 46.1 µM	18.4	17.8	9.65
RPMI 5 mM glucose + 10% FBS, 0.000781 µM	110	99.9	102
RPMI 5 mM glucose + 10% FBS, 0.00234 µM	109	105	99.9
RPMI 5 mM glucose + 10% FBS, 0.00702 µM	106	112	106
RPMI 5 mM glucose + 10% FBS, 0.0211 µM	108	119	100
RPMI 5 mM glucose + 10% FBS, 0.0632 µM	106	124	106
RPMI 5 mM glucose + 10% FBS, 0.19 µM	117	126	92.1
RPMI 5 mM glucose + 10% FBS, 0.569 µM	122	134	60.1
RPMI 5 mM glucose + 10% FBS, 1.71 µM	111	109	44.1
RPMI 5 mM glucose + 10% FBS, 5.12 µM	113	103	26
RPMI 5 mM glucose + 10% FBS, 15.4 µM	104	87.4	22.1
RPMI 5 mM glucose + 10% FBS, 46.1 µM	50.3	32.9	10.9
RPMI 5 mM glucose + 10% dialyzed FBS, 0.000781 µM	110	96	78.5
RPMI 5 mM glucose + 10% dialyzed FBS, 0.00234 µM	114	118	99.8
RPMI 5 mM glucose + 10% dialyzed FBS, 0.00702 µM	125	109	102
RPMI 5 mM glucose + 10% dialyzed FBS, 0.0211 µM	110	114	85.1
RPMI 5 mM glucose + 10% dialyzed FBS, 0.0632 µM	107	108	102
RPMI 5 mM glucose + 10% dialyzed FBS, 0.19 µM	123	116	67.1
RPMI 5 mM glucose + 10% dialyzed FBS, 0.569 µM	111	117	47.6
RPMI 5 mM glucose + 10% dialyzed FBS, 1.71 µM	116	114	27.9
RPMI 5 mM glucose + 10% dialyzed FBS, 5.12 µM	99.7	102	21
RPMI 5 mM glucose + 10% dialyzed FBS, 15.4 µM	97.4	80.5	20.6
RPMI 5 mM glucose + 10% dialyzed FBS, 46.1 µM	62.8	33.4	13.2

AUC of viability dose-response curve
Settings	NOMO1 [4]	P12-Ichikawa [5]	SEM cells [6]
HPLM + 10% dialyzed FBS	445	450	323
RPMI 5 mM glucose + 10% FBS	461	443	325
RPMI 5 mM glucose + 10% dialyzed FBS	454	443	290
